≈ marks a conversion by molar mass, not a printed value.
Legend:
[1] = target: T1, Human C5 (Homo sapiens, UniProt P01031); assay: Red blood cell (RBC) hemolysis assay, luminescent (Example 13, Table 22); type: cell-based; conditions: sheep EA cells, […] C5-depleted human serum, 0.5 nM human C5, 1 hour 37° C., luminescence
T1 construct: purchased Complement Technology
Source text: Compound CU0136 is a racemic mixture of Compound CU0186 and CU0187. Numbers in parenthesis following compound numbers indicate alternate enantiomers (as distinguished by retention time during chromatographical separation).

[2] = Kinetic solubility in PBS pH 7.4, HPLC-UV (Example 21, Table 27); type: physicochemical; conditions: phosphate buffered saline, aqueous buffer, kinetic from dmso stock, 0.5 M PBS, shaken minimum 24 h at approximately 25° C., HPLC-UV 270 nm
Method: Compounds were analyzed for kinetic solubility values using a standard kinetic solubility assay format. First, test compounds were dissolved in DMSO (Aldrich Chemical Co., Milwaukee, Wis., USA) at a concentration of 0.010 mol/L and used to prepare standard calibrators in DMSO solution. 500.0 μM, 250.0 μM, 125.0 μM, 62.5 μM, 31.2 μM, and 15.6 μM standards were prepared in a Greiner UV-Star clear V-bottom 96-well plate (Greiner-Bio One, Germany) for generating a standard curve. Using Alfa Aesar's Sodium phosphate, 0.2 M buffer solution, pH 7.4 (Alfa Aesar, Haverhill, Mass., USA), aqueous phosphate buffered saline (PBS) was prepared by diluting with Milli-Q water for a final concentration of 0.05 M. The pH of the solution was adjusted to 7.4±0.1 using 0.1 M hydrochloric acid (Fisher Scientific Waltham, Mass., USA) or 0.1 M aqueous sodium hydroxide (Fisher Scientific Waltham, Mass., USA).
10 μL of 0.010 mol/L DMSO test compound stock solutions were pipetted to separate 1.5 mL centrifuge tubes in triplicate. To these tubes, 190 μl of 0.05 M PBS was added. Each tube was gently vortexed for 5 sec. The tubes were shaken for a minimum of 24 h at approximately 25° C. After shaking, the solutions were transferred to 0.5 mL centrifuge filter tubes (MilliporeSigma, Burlington, Mass., USA) and centrifuged at 10,000 rpm for 5 min. After centrifugation, supernatants were collected and used for compound concentration analysis.
Compound concentrations in each solution were determined using high pressure liquid chromatography (HPLC) with ultraviolet (UV) detection and comparison with external standards. For HPLC, a Waters Acquity CSH Phenyl-Hexyl column (2.1 mm×50 mm, 1.7 μm) was used together with a generic gradient method on a Waters H-class system equipped with a diode array detector: Solvent A=0.1% formic acid in water, Solvent B=0.1% formic acid in acetonitrile (MilliporeSigma, Burlington, Mass., USA), flow=0.65 mL/min, (t=0 min: 95% A-5% B, t=4.75 min: 0% A-100% B, t=4.85 min: 0% A-100% B, t=4.86 min: 95% A-5% B, t=5 min: 95% A-5% B). UV quantifications were performed at 270 nm. Solution concentrations were calculated using Microsoft Excel.

[3] = target: purified human C5 (Homo sapiens, UniProt P01031); assay: Red blood cell (RBC) hemolysis assay, optical, absorbance 412 nm (Example 10, Table 19); type: cell-based; conditions: antibody-sensitized sheep erythrocytes, […] human C5 depleted sera, 0.5 nM purified human C5, absorbance 412 nm; read-out: RBC Hemolysis IC50
Chain of purified human C5 (P01031 19-1676): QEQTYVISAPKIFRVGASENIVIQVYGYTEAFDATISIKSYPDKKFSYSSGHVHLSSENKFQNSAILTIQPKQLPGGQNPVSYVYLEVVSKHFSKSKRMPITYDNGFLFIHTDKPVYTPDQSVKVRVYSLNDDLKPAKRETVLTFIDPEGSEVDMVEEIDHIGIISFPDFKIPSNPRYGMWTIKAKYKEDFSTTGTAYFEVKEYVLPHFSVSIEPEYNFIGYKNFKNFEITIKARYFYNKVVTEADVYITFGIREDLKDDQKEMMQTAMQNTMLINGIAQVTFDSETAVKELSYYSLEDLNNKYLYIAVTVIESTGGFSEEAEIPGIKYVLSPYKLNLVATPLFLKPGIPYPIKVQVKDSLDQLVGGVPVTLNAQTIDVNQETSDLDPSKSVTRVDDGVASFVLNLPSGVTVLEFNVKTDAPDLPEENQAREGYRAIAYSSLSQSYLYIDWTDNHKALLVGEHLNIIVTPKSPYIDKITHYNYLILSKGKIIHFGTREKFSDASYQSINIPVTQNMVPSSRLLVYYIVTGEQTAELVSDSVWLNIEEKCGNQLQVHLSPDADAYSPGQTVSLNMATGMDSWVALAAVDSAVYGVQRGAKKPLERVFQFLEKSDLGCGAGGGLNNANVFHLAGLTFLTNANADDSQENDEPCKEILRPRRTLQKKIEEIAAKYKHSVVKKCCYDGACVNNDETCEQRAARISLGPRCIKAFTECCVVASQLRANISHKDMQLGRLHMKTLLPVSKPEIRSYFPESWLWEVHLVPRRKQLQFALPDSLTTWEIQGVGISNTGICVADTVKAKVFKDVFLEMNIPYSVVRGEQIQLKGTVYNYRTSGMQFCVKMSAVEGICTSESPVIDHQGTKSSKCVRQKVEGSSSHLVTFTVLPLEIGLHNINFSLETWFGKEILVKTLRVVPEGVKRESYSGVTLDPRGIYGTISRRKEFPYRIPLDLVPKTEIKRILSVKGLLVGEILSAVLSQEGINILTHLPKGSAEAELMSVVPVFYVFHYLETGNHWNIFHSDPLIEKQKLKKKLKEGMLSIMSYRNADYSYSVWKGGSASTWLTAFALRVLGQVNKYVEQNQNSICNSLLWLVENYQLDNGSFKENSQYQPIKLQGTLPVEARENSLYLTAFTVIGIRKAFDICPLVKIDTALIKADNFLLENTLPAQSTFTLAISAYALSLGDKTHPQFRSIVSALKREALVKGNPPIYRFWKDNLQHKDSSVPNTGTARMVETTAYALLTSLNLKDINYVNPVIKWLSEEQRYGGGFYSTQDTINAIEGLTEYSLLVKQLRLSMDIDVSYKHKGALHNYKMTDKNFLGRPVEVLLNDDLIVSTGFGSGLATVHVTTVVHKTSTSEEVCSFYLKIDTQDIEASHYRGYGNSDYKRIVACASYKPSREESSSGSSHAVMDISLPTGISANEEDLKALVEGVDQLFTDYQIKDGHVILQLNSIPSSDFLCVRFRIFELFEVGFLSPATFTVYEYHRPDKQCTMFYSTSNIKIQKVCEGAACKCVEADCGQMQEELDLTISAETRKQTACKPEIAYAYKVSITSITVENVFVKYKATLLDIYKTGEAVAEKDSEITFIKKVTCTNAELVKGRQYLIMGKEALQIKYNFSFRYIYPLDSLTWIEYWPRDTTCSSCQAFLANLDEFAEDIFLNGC

[4] = target: T1, Human C5; assay: Red blood cell (RBC) hemolysis assay, luminescent (Example 28, Table 32); type: cell-based; conditions: sheep EA cells, 1.5% C5-depleted human serum, 0.5 nM human C5, 1 hour at 37° C., luminescence (Table 32)
Method: Sheep red blood cells coated with rabbit anti-sheep erythrocyte antiserum (EA cells; Complement Technology, Tyler, Tex.) were used to assay compound inhibitory activity of the classical complement activation pathway. Briefly, the EA cells were washed once and resuspended in the same volume of GVB++ buffer (Complement Technology, Tyler, Tex.). 25 μL of EA cells were then distributed into each well of 384-well tissue culture plates using Apricot iPipette Pro (Apricot Designs; Covina, Calif.). Compounds were tested in 10 points of final concentrations ranging from 16.67 μM to 1.65 μM in a 6-fold titration series. Compounds were dispensed into 384-well plates from 6.7 mM and 3.35 μM DMSO working stocks using an HP Digital Dispenser (HP; Corvallis, Oreg.). The reactions also contained 1.5% (v/v) C5-depleted human serum (Complement Technology). Hemolysis was induced by addition of human C5 (Complement Technology) at a concentration of 0.5 nM and plates were incubated for 1 hour at 37° C. in a cell culture incubator. The extent of hemolysis was measured by ability of released hemoglobin to catalyze luminol in the presence of hydrogen peroxide. Luminescence was then measured using a plate reader. Luminescence measurements were used to prepare a dose-response curve. From the curve, the half maximal inhibitory concentration (IC50) for each compound was determined, where the IC50 represents the concentration of each compound needed to reduce red blood cell hemolysis by half.

T1 sequence (P01031 19-1676): as above

solubility kinetic [2]	Structure (SMILES)	IC50 [1]	IC50 [3]	IC50 [4]
77 µM (≈ 41.3 µg/mL)	CCCCCOc1cc(N2CCCN(Cc3ccc(CNC(=O)c4cocn4)cc3OC)C2=O)ccc1OC [CU0161]	22.9 nM	–	–
435 µM (≈ 275 µg/mL)	COc1cc(CC(=O)N2CCOC(CN(C)C)C2)ccc1CN1CCCN(c2ccc(OC)c(OCCCC(C)(F)F)c2)C1=O (centres unmarked) [CU0170]	20.1 nM	–	–
368 µM (≈ 213 µg/mL)	CCCCCOc1cc(N2CCCN(Cc3ccc(CC(=O)N4CCN=C(N(C)C)C4)cc3OC)C2=O)ccc1OC [CU0173]	11.4 nM	–	–
486 µM (≈ 308 µg/mL)	CCC(F)(F)CCOc1cc(N2CCCN(Cc3ccc(CC(=O)N4CCOC(CN(C)C)C4)cc3OC)C2=O)ccc1OC (centres unmarked) [CU0175]	28.1 nM	–	–
423 µM (≈ 228 µg/mL)	CCCCCOc1cc(N2CCCN(Cc3ccc(CCN4CCN(C)CC4)cc3OC)C2=O)ccc1OC [CU0178]	26.7 nM	–	–
73 µM (≈ 34.3 µg/mL)	CCCCCOc1cc(N2CCCN(Cc3ccc(CC(N)=O)cc3OC)C2=O)ccc1OC [CU0188]	19.9 nM	–	–
139 µM (≈ 74.7 µg/mL)	CCCCCOc1cc(N2CCCN(Cc3ccc(CCN4CCCCC4=O)cc3OC)C2=O)ccc1OC [CU0190]	41.4 nM	–	–
> 500 µM	CCCCCOc1cc(N2CCCN(Cc3ccc(CC(=O)N4CCO[C@H](COC)C4)cc3OC)C2=O)ccc1OC [CU0196]	21.1 nM	–	–
389 µM (≈ 172 µg/mL)	CCCCCOc1cc(N2CCCN(Cc3ccc(CN)cc3OC)C2=O)ccc1OC [CU0201]	7.4 nM	–	–
415 µM (≈ 262 µg/mL)	CCC(F)(F)CCOc1cc(N2CCCN(Cc3ccc(CC(=O)NC4CCN(C(C)C)CC4)cc3OC)C2=O)ccc1OC [CU0207]	13.1 nM	–	–
112 µM (≈ 57 µg/mL)	CCCCCOc1cc(N2CCCN(Cc3ccc(Cc4nnnn4C)cc3OC)C2=O)ccc1OC [CU0211]	15.6 nM	–	–
52 µM (≈ 26.4 µg/mL)	CCCCCOc1cc(N2CCCN(Cc3ccc(Cc4nnn(C)n4)cc3OC)C2=O)ccc1OC [CU0212]	23.6 nM	–	–
17 µM (≈ 9.35 µg/mL)	COc1cc(CC(=O)N(C)C)ccc1CN1CCCN(c2ccc(OC)c(OCC[C@@H]3C[C@@H]4CC[C@H]3C4)c2)C1=O [CU0213]	20.4 nM	–	–
209 µM (≈ 123 µg/mL)	COc1cc(CC(=O)N(C)C)ccc1CN1CCCN(c2ccc(OC)c(OCCCC(F)(F)C(F)(F)F)c2)C1=O [CU0214]	21.1 nM	–	–
466 µM (≈ 272 µg/mL)	CCCCCOc1cc(N2CCCN(Cc3ccc(CC(=O)N4CCO[C@@H](COC)C4)cc3OC)C2=O)ccc1OC [CU0224]	15.4 nM	–	–
333 µM (≈ 196 µg/mL)	CCCCCOc1cc(N2CCCN(Cc3cccc4c3ccn4CC(=O)N3CCN=C(N(C)C)C3)C2=O)ccc1OC [CU0239]	11.2 nM	–	–
< 10 µM	CCCCCOc1cc(N2CCCN(Cc3cccc4c3ccn4CC(=O)NC3CNC(=O)C3)C2=O)ccc1OC (centres unmarked) [CU0243]	5.5 nM	–	–
200 µM (≈ 115 µg/mL)	CCCCCOc1cc(N2CCCN(Cc3cccc4c3ccn4CC(=O)NC3CCNC(=O)C3)C2=O)ccc1OC (centres unmarked) [CU0244]	6.7 nM	–	–
142 µM (≈ 77.9 µg/mL)	CCCCCOc1cc(N2CCCN(Cc3cccc4c3ccn4CC(=O)NC3(C)COC3)C2=O)ccc1OC [CU0245]	12.2 nM	–	–
287 µM (≈ 165 µg/mL)	CCCCCOc1cc(N2CCCN(Cc3cccc4c3ccn4CC(=O)N3CCN(C)C(=O)C3)C2=O)ccc1OC [CU0246]	10.6 nM	–	–
376 µM (≈ 228 µg/mL)	CCCCCOc1cc(N2CCCN(Cc3cccc4c3ccn4CC(=O)N3CCOC(CN(C)C)C3)C2=O)ccc1OC (centres unmarked) [CU0247]	9.8 nM	–	–
436 µM (≈ 264 µg/mL)	CCCCCOc1cc(N2CCCN(Cc3ccnc4c3ccn4CC(=O)NC3CCN(C(C)C)CC3)C2=O)ccc1OC [CU0255]	19.4 nM	–	–
22 µM (≈ 13.1 µg/mL)	COc1ccc(N2CCCN(Cc3ccnc4c3ccn4CC(=O)N(C)C)C2=O)cc1OCCCC(F)(F)C(F)(F)F [CU0256]	62.7 nM	–	–
> 500 µM	CCCCCOc1cc(N2CCCN(Cc3ccnc4c3ccn4CC(=O)N(C)C3CCN(CC)C3)C2=O)ccc1OC (centres unmarked) [CU0257]	16 nM	–	–
462 µM (≈ 241 µg/mL)	CCCCCOc1cc(N2CCCN(Cc3ccnc4c3c(C)cn4CC(=O)N(C)C)C2=O)ccc1OC [CU0258]	7.5 nM	–	–
436 µM (≈ 259 µg/mL)	CCCCCOc1cc(N2CCCN(Cc3ccnc4c3ccn4CC(=O)N3CCO[C@@H](COC)C3)C2=O)ccc1OC [CU0260]	25 nM	–	–

solubility kinetic [2]	Structure (SMILES)	IC50 [1]	IC50 [3]	IC50 [4]
–	COc1ccc(NC(=O)NCc2cccc3ccsc23)cc1OCCCC(C)C [Compound C5INH-0294]	–	343 nM	–
–	CNC(=O)c1cccc(CNC(=O)Nc2ccc(OC)c(OCCCC(C)C)c2)c1 [Compound C5INH-0319]	–	793 nM	–
–	COc1ccc(N)cc1CNC(=O)Nc1ccc(OC)c(OCCCC(C)C)c1 [Compound C5INH-0321]	–	61 nM	–
–	COc1ccc(NC(=O)NCc2ccc(CN3CCN(C)CC3)cc2)cc1OCCCC(C)C [Compound C5INH-0324]	–	551 nM	–
–	COc1ccc(NC(=O)NCc2ccnc3c2ccn3CCN2CCOCC2)cc1OCCCC(C)C [Compound C5INH-0370]	–	209 nM	–
–	COc1ccc(NC(=O)N2CCCC2c2ccccc2OC)cc1OCCCC(C)C (centres unmarked) [Compound C5INH-0371]	–	67.6 nM	–
–	COc1ccc(NC(=O)NCc2ccnc3c2ccn3CCC(=O)O)cc1OCCCC(C)C [Compound C5INH-0399]	–	619 nM	–
–	COc1ccc(NC(=O)NCc2ccnc3c2ccn3CCN2CCCS2(=O)=O)cc1OCCCC(C)C [Compound C5INH-0411]	–	618 nM	–
–	COc1ccc(NC(=O)NCc2cccc3cn[nH]c23)cc1OCCCC(C)C [Compound C5INH-0448]	–	4290 nM	–
–	COc1ccc(OCCCC(C)C)cc1NC(=O)NC(CO)c1ccccc1 (centres unmarked) [Compound C5INH-0487]	–	824 nM	–
–	COc1ccc(NC(=O)NCc2ccnc3c2ccn3CC(=O)N2CCCCC2)cc1OCCCC(C)C [Compound C5INH-0507]	–	185 nM	–
–	COc1ccc(NC(=O)NCc2ccnc3c2ccn3CC(=O)N2CCOCC2)cc1OCCCC(C)C [Compound C5INH-0508]	–	72 nM	–
–	COc1cc(CNC(=O)C(C)(C)C)c(NC(=O)NCc2ccnc3[nH]ccc23)cc1OCCCC(C)C [Compound C5INH-0509]	–	286 nM	–
–	COc1cc(CNC(=O)c2ccccc2)c(NC(=O)NCc2ccnc3[nH]ccc23)cc1OCCCC(C)C [Compound C5INH-0510]	–	119 nM	–
–	COc1ccc(NC(=O)NC(C(=O)NO)c2cccc(OC)c2O)cc1OCCCC(C)C (centres unmarked) [Compound C5INH-0512]	–	41.5 nM	–
–	COc1ccc(NC(=O)Nc2ccc3cc[nH]c3c2)cc1OCCCC(C)C [Compound C5INH-0513]	–	3320 nM	–
–	COc1ccc(NC(=O)NCc2c(F)cnc3c2ccn3CC(=O)N(C)C)cc1OCCCC(C)C [Compound C5INH-0515]	–	1600 nM	–
–	COc1ccc(NC(=O)NCc2ccnc(NCCCN(C)C)c2OC)cc1OCCCC(C)C [Compound C5INH-0532]	–	218 nM	–
–	COc1ccc(NC(=O)CN2CCOCC2)cc1CNC(=O)Nc1ccc(OC)c(OCCCC(C)C)c1 [Compound C5INH-0533]	–	671 nM	–
–	COc1ccc(NC(=O)NCc2ccnc3c2ccn3Cc2ccncc2)cc1OCCCC(C)C [Compound C5INH-0540]	–	432 nM	–
–	COc1ccc(NC(=O)NCc2cccc3c2OCCO3)cc1OCCCC(C)C [Compound C5INH-0543]	–	373 nM	–
–	COc1cc(CC(=O)N2CCNC(=O)C2)ccc1CN1C(=O)N(c2ccc(OC)c(OCCCC3CC3)c2)CC[C@@H]1C [SC0118]	–	–	1.4 nM
–	COc1cc(CC(=O)N(C)[C@@H]2CCNC2)ccc1CN1C(=O)N(c2ccc(OC)c(OCCCC3CC3)c2)CC[C@@H]1C [SC0121]	–	–	1.5 nM
–	CCCCCOc1cc(N2CC[C@H](C)N(Cc3ccnc4c3c(Cl)cn4CC(=O)N(C)OC)C2=O)ccc1OC [SC0124]	–	–	1.6 nM
–	CCN1CC[C@@H](NC(=O)Cc2ccc(CN3C(=O)N(c4ccc(OC)c(OCCCC5CC5)c4)CC[C@@H]3C)c(OC)c2)C1 [SC0126]	–	–	1.6 nM
–	CCCCCOc1cc(N2CC[C@H](C)N(Cc3ccnc4c3c(Cl)cn4CC(=O)N3CC[C@H](N(C)C)C3)C2=O)ccc1OC [SC0129]	–	–	1.7 nM

Structure (SMILES)	solubility kinetic [2]	IC50 [1]	IC50 [3]	IC50 [4]
CCCCCOc1cc(N2CCCN(Cc3ccc(CC(=O)N(C)C4CCN(CC)C4)cc3OC)C2=O)ccc1OC (centres unmarked) [CU0177]	351 µM (≈ 204 µg/mL)	21.1 nM	–	–

Reference: US20230115176A1 (Ra Pharmaceuticals, Inc., priority 2019, published 2023)
